Three molecules from US11578055B2, “Triazacyclododecansulfonamide (“TCD”)-based protein secretion inhibitors” (KEZAR LIFE SCIENCES, priority 2018, dated 2023) can be followed below.

pEC50, pIC50: −log10 of the molar value. Where two headings read alike, the source gives them in different places.

Data set [1] in a line: In Vitro Microsome Stability Assay (rat). Format: in vitro ADME. In short, it runs like this:
(§1)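 The value reported is the percentage of parent left after 30 min, calculated from analyte/IS peak-area ratios relative to time zero by LC-MS/MS. Incubations ran at 37° C in 0.1 M potassium phosphate with NADPH and microsomes (stock 20 mg/mL), with compound added from a 0.25 mM DMSO stock. Acetonitrile containing IS stopped the reactions.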

In data set [2] the test system is multiple myeloma cell line U266B1. Put plainly: U266 Cell Viability Assay. Format: cell-based, human. The conditions noted are these: Homo sapiens, U-266, 48 hr. In a few lines:
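Viability was measured by CellTiter-Glo luminescence after 48 h compound exposure at 37° C, 5% CO2. The cells were U266B1 multiple myeloma cells grown in RPMI 1640 plus 10% FBS. Where stereochemistry is not shown, values apply to the stereoisomer mixture.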

Data set [3] can be described thus: In Vitro Microsome Stability Assay (monkey). In kind it is in vitro ADME. In short, it runs like this:
as §1

In data set [4] the test system is PD1 signal sequence plus 10 amino acids fused to Gaussia Luciferase (PD1-ss+10aa/Gaussia Luciferase). Briefly: Dox Induced PD1-ss-Gluc Assay. Format: cell-based. The conditions noted are these: 24 hr, read-out: 24 hr Dox Inducible PD1ssGluc 293FRT/TO: Mean IC50. In short, it runs like this: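 Compound dilutions in DMSO/media containing doxycycline were applied to a stable, inducible 293 T-REx line carrying the luciferase fusion, then incubated at 37 °C, 5% CO2. Where stereochemistry is not drawn, values relate to isomer mixtures.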

Data set [5] can be described thus: In Vitro Microsome Stability Assay (human). Format: in vitro ADME. In a few lines:
as §1

For data set [6], the system named is full length IL-2 (amino acids 1-153) fused to Gaussia Luciferase. Put plainly: Dox Induced IL2-FL-Gluc Assay. In kind it is cell-based. The conditions noted are these: 24 hr, read-out: 24 hr Dox Inducible IL2FLGluc 293FRT/TO: Mean IC50. In a few lines:
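Compounds in DMSO/media with doxycycline were added to cells plated the previous day and incubated at 37° C, 5% CO2. Cells: stable Flp-In 293 T-REx line, Dox-regulated expression of IL-2 (aa 1-153) fused at its C-terminus to Gaussia luciferase.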

The subject of data set [7] is multiple myeloma cell line NCl-H929. Briefly: H929 Cell Viability Assay. In kind it is cell-based, human. The conditions noted are these: Homo sapiens, NCI-H929, 48 h. In a few lines: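 Viability was determined by CellTiter-Glo luminescence after a 48 h, 37 °C exposure of NCI-H929 cells to serial compound dilutions in medium containing 10% FBS. Where stereochemistry is not shown, values refer to a mix of stereoisomers.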

The test system of data set [8] is full length TNFα (amino acids 1-233) fused to Gaussia Luciferase. Briefly: Dox Induced TNFα-FL-Gluc Assay. In kind it is cell-based. The conditions noted are these: 24 hr, read-out: 24 hr Dox Inducible TNFaFLGluc 293FRT/TO: Mean IC50. In short, it runs like this: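 Compounds diluted in DMSO/medium with doxycycline were incubated at 37° C, 5% CO2 with 293 T-REx cells stably carrying a Tet-regulated TNFα(1-233)-Gaussia luciferase construct. Data for structures drawn without stereochemistry refer to stereoisomer mixtures.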

Data set [9] concerns full length PD1 (amino acids 1-288) fused to Firefly Luciferase. Put plainly: Dox Induced PD1-FL-Gluc Assay. The conditions noted are these: 24 hr, 293FRT/TO; read-out: 24 hr Dox Inducible PD1FLFluc 293FRT/TO: Mean IC50. In kind it is cell-based.
A short description of data set [10]: In Vitro Microsome Stability Assay (mouse). Format: in vitro ADME. In short, it runs like this:
as §1

In another data set the test system is IL-2. Briefly: Human PBMC Cytokine Assay: IL-2. Format: cell-based. The conditions noted are these: anti-CD3/CD28 stimulation, 24 hours. As to the method:
(§2) Human PBMC were freshly isolated from whole blood collections of 3 normal donors utilizing density gradient centrifugation followed by red blood cell lysis. PBMC from each donor were assayed separately. Cells were suspended in RPMI 1640 media supplemented with 5% fetal bovine serum, 2 mM L-glutamine, 10 mM HEPES, and 1× penicillin/streptomycin. PBMC were seeded at 200,000 cells/well in 96-well round-bottom plates either without stimulation or with stimulation by lipopolysaccharide (LPS, 1 μg/mL) or antibodies against human CD3 (plate-bound, 2 μg/mL) and human CD28 (soluble, 2 μg/mL). Serial dilutions of compound in DMSO/media were simultaneously added and PBMC were incubated at 37° C., 5% CO2 for 24 hours. After 24 hours, plates were centrifuged and half of the supernatant volume removed for cytokine analysis by electrochemiluminescent immunoassay (U-PLEX® Biomarker Multiplex, Meso Scale Discovery). For viability analysis, CellTiter-Glo® (Promega) was added to the remaining material in each well and quantified via luminescent plate reader.

The test system of a further data set is IL-6. Briefly: Human PBMC Cytokine Assay: IL-6. In kind it is cell-based. The conditions noted are these: LPS stimulation, 24 hours. As to the method:
as §2

A further data set relates to IL-23. Briefly: Human PBMC Cytokine Assay: IL-23. In kind it is cell-based. The conditions noted are these: LPS stimulation, 24 hours. As to the method: as §2
The subject of a further data set is GM-CSF. Briefly: Human PBMC Cytokine Assay: GM-CSF. The conditions noted are these: anti-CD3/CD28 stimulation, 24 hours. Format: cell-based. On the procedure: as §2
Another data set concerns IFNγ. Briefly: Human PBMC Cytokine Assay: IFNγ. Format: cell-based. The conditions noted are these: anti-CD3/CD28 stimulation, 24 hours. As to the method:
as §2

The subject of the next data set is TNFα. Put plainly: Human PBMC Cytokine Assay: TNFα. In kind it is cell-based. The conditions noted are these: anti-CD3/CD28 stimulation, 24 hours. On the procedure:
as §2

The subject of a further data set is IL-1β. Put plainly: Human PBMC Cytokine Assay: IL-1β. In kind it is cell-based. The conditions noted are these: LPS stimulation, 24 hours. As to the method: as §2
In a further data set the test system is Human PBMC. Briefly: Human PBMC CellTiter-Glo viability. In kind it is cell-based. The conditions noted are these: no stimulation, 24 hours. As to the method:
as §2
Background: ATP-based viability assays read luminescence as a measure of living cells.

Setting [11] is: U266, read-out: 48 hr U266 Viability Celltiter-Glo: Mean EC50.
Where [12] appears, read: H929, read-out: 48 hr H929 Viability Celltiter-Glo: Mean EC50.

The pEC50 is the negative decadic logarithm of the EC50, by convention in mol/L. As for `C=C1CN(S(=O)(=O)c2ccc(N(C)C)cc2)CCCN(CC2CCCCC2)CCCN(S(=O)(=O)N2CCC[C@@H](c3ccccc3)C2)C1` [A43, 4-{[9-(cyclohexylmethyl)-3-methylidene-5-{[(3S)-3-phenylpiperidin-1-y]sulfonyl}-1,5,9-triazacyclododecan-1-yl]sulfonyl}-N,N-dimethylaniline], in [1] (rat, 30 min, NADPH), the “Liver Microsome Stability-% Left after 30 min w/ NADPH (%) Rat” value (from here on “Liver Microsome Stability-% Left … (%) Rat”) came out at 22.3%. The pEC50 in data set [2] (setting [11]) was below 4.60; in data set [7] (setting [12]), 5.53. Further, the “Liver Microsome Stability-% Left after 30 min w/ NADPH (%) Monkey” value (shortened to “Liver Microsome Stability-% Left … (%) Monkey”) in [3] (monkey, 30 min, NADPH) amounted to 12%. Besides, the pIC50 in data set [4] (293FRT/TO) is 7.33; in [6] (293FRT/TO) it was 6.88; in [8] (293FRT/TO), 5.92; in data set [9] it was 6.79. Also, the “Liver Microsome Stability-% Left after 30 min w/ NADPH (%) Human” value (shortened to “Liver Microsome Stability-% Left … (%) Human”) in [5] (human, 30 min, NADPH) is 15.4%. Besides, the “Liver Microsome Stability-% Left after 30 min w/ NADPH (%) Mouse” value (from here on “Liver Microsome Stability-% Left … (%) Mouse”) in data set [10] (mouse, 30 min, NADPH) was 20.1%.

Usually IC50 stands for the concentration that inhibits the measured activity by half. With `Cc1ccccc1CN1CCCN(S(=O)(=O)c2ccc(N(C)C)cc2)C[C@H](C)CN(S(=O)(=O)N2CCc3cc(Cl)ccc3C2)CCC1` [A133, 4-{[(3S)-5-[(6-chloro-1,2,3,4-tetrahydroisoquinolin-2-yl)sulfonyl]-3-methyl-9-[(2-methylphenyl)methyl]-1,5,9-triazacyclododecan-1-yl]sulfonyl}-N,N-dimethylaniline], the 50% inhibitory concentration (IC50) in the data set with IL-2 is 197 nM; in the data set with IL-6, 193 nM; in the data set with IL-23 it was 1050 nM; in the data set on GM-CSF, 404 nM; in the data set on IFNγ it was 234 nM; with TNFα, 216 nM. Moreover, the IC50 with IL-1β and in the data set with Human PBMC was above 25000 nM throughout. The “Liver Microsome Stability-% Left … (%) Rat” value in data set [1] (rat liver microsomes, 30 min w/ NADPH) is 87.3%. Moreover, the pEC50 in [2] (U266, Celltiter-Glo) is below 4.60; in [7] (H929, Celltiter-Glo) it was 5.29. Also, the “Liver Microsome Stability-% Left … (%) Monkey” value in data set [3] (monkey liver microsomes, 30 min w/ NADPH) is reported as 67.3%. For the same molecule, the pIC50 is 7.43 in [4] (Dox inducible, 293FRT/TO cells); 6.87 in data set [6] (Dox inducible, 293FRT/TO cells); 6.13 in data set [8] (Dox inducible, 293FRT/TO cells). Besides, in [5] (human liver microsomes, 30 min w/ NADPH), the “Liver Microsome Stability-% Left … (%) Human” value was 71.3%. Also, the “Liver Microsome Stability-% Left … (%) Mouse” value in data set [10] (mouse liver microsomes, 30 min w/ NADPH) turned out to be 82.2%.

For the molecule `C=C1CN(S(=O)(=O)c2ccc(N(C)C)cc2)CCCN(CC2CCCCC2)CCCN(S(=O)(=O)N2CCN(c3ccccc3)CC2)C1` [A36, 4-{[9-(cyclohexylmethyl)-3-methylidene-5-[(4-phenylpiperazin-1-yl)sulfonyl]-1,5,9-triazacyclododecan-1-yl]sulfonyl}-N,N-dimethylaniline], in data set [1] (rat, 30 min, NADPH), the “Liver Microsome Stability-% Left … (%) Rat” value was found to be 0.94%. The pEC50 is below 4.60 in data set [2] (setting [11]) and below 4.81 in data set [7] (setting [12]). In addition, the “Liver Microsome Stability-% Left … (%) Monkey” value in data set [3] (monkey, 30 min, NADPH) amounted to 1.54%. Further, the pIC50 is 6.93 in data set [4] (293FRT/TO), 6.52 in [6] (293FRT/TO), below 4.66 in data set [8] (293FRT/TO) and 6.50 in data set [9]. The “Liver Microsome Stability-% Left … (%) Human” value in data set [5] (human, 30 min, NADPH) is listed as 6.69%. Further, in data set [10] (mouse, 30 min, NADPH), the “Liver Microsome Stability-% Left … (%) Mouse” value was 1.85%.
